Laboratory results as given in article PMC4492764, “Evaluation of biomarkers for in vitro prediction of drug-induced nephrotoxicity: comparison of HK-2, immortalized human proximal tubule epithelial, and primary cultures of human proximal tubular cells” (Pharmacology Research & Perspectives, 2015).
Counter-ions that a name gives are not always drawn.

Key:
Assay type in all cases: cell-based, human
KIM-1 [1] = assay: KIM-1 protein ELISA in freshly isolated hPT cells; conditions: for KIM-1 protein increase in hPT cell lysate: 24 h treatment; for KIM-1 protein upregulation in hPT cells: high doses, within 24 h; for Upregulation of KIM-1 hPT P(L): protein levels in cell lysates, table title says 72 h time point
Procedure: (§1) hPT cells were derived from whole human kidneys procured by the International Institute for the Advancement of Medicine (Edison, NJ). All tissues were scored by a pathologist as normal (i.e., derived from noncancerous, nondiseased tissue). […] Whole kidneys were perfused with Wisconsin medium and kept on ice until they arrived at the laboratory, which was usually within 24 h of removal from the donor. All buffers were continuously bubbled with 95% O2/5% CO2 and were maintained at 37°C. Minced cortical pieces from whole kidneys were subjected to collagenase digestion for 60 min, after which the supernatant was filtered through a 70-μm mesh filter to remove tissue fragments, centrifuged at 150g for 7 min, and the pellet resuspended in Dulbecco’s Modified Eagle’s Medium: […] Approximately, 5–7 × 10^6 cells were obtained per 1 g of human kidney cortical tissue. […] Composition of this supplemented medium was based on earlier work establishing optimal conditions for primary culture of rat PT cells (Lash et al., [1995]). Basal medium was a 1:1 mixture of DMEM/F12. […] Cultures were grown at 37°C in a humidified incubator under an atmosphere of 95% air/5% CO2 at pH 7.4. Cultures were grown to approximately 80–90% confluence (generally 5–6 days) prior to experiments. Cells were harvested by either scraping the flasks with a Teflon scraper or by brief incubation with Cellstripper (Cellgro, Herndon, VA) (in Ca^2+- and Mg^2+-free Hanks’ buffer). KIM-1 (DY1750), NGAL (DY1757), and M-CSF (DY216) Duo-Set® ELISA kits were purchased from R&D systems (Minneapolis, MN). Sandwich-ELISA experiments were conducted following the manufacturer’s instructions with slight modifications. A 96-well microplate (MaxiSorp®, Nunc, Thermo Scientific, NSW, Australia) was coated with 100 μL of capture antibodies (diluted 1:200 in PBS) and incubated overnight. The plate was then washed twice with washing buffer (0.05% Tween 20 in PBS, pH 7.4) and blocked by adding 300 μL of blocking buffer (1% bovine serum albumin (BSA) in PBS) for 1 h at room temperature. After washing two times with PBS, 100 μL of samples (cell culture media or cell lysates) or standards were then added to each well and incubated for 2 h at room temperature. The biotinylated detection antibodies were then diluted in blocking buffer, added to each well and incubated for 2 h. Horseradish peroxidase (HRP)-labeled streptavidin (100 μL) was then added to bind to detection antibodies. To each well, 100 μL of substrate solution (1:1 mixture of H2O2 and tetramethylbenzidine) was added and incubated for 20 min before reaction termination with 50 μL of stop solution (2N H2SO4). The optical density of each well was measured at 450 nm using a POLARstar Omega plate reader (BMG Labtech). All assays were performed at least three times, with at least two technical replicates in each assay.

KIM-1 [2] = assay: KIM-1 protein ELISA in HK-2 cells; parameters: key: +: statistically significant increase; −: no significant increase; conditions: protein levels in culture medium; 72 h time point
Procedure: HK-2 cells (ATCC CRL-2190; Manassas, VA) were maintained in DMEM/F12 (Life Technologies; Sydney, NSW, Australia) supplemented with 5 μg/mL insulin, 5 μg/mL transferrin, 5 ng/mL sodium selenite (ITS; Roche; […] (passage 2) and culture kits were purchased from Lonza. […] were maintained in Renal Epithelial Cell BulletKitTM (CC-3190, Lonza) at 37°C and 5% CO2 atmosphere. Cells were passaged to 96-well plates with a density of 4000 cells/well. After 24 h culture, compounds with different concentration series were added into each well and incubated for 4, 24, 48, and 72 h. KIM-1 (DY1750), NGAL (DY1757), and M-CSF (DY216) Duo-Set® ELISA kits were purchased from R&D systems (Minneapolis, MN). Sandwich-ELISA experiments were conducted following the manufacturer's instructions with slight modifications. A 96-well microplate (MaxiSorp®, Nunc, Thermo Scientific, NSW, Australia) was coated with 100 μL of capture antibodies (diluted 1:200 in PBS) and incubated overnight. The plate was then washed twice with washing buffer (0.05% Tween 20 in PBS, pH 7.4) and blocked by adding 300 μL of blocking buffer (1% bovine serum albumin (BSA) in PBS) for 1 h at room temperature. After washing two times with PBS, 100 μL of samples (cell culture media or cell lysates) or standards were then added to each well and incubated for 2 h at room temperature. The biotinylated detection antibodies were then diluted in blocking buffer, added to each well and incubated for 2 h. Horseradish peroxidase (HRP)-labeled streptavidin (100 μL) was then added to bind to detection antibodies. To each well, 100 μL of substrate solution (1:1 mixture of H2O2 and tetramethylbenzidine) was added and incubated for 20 min before reaction termination with 50 μL of stop solution (2N H2SO4). The optical density of each well was measured at 450 nm using a POLARstar Omega plate reader (BMG Labtech). All assays were performed at least three times, with at least two technical replicates in each assay.

M-CSF mRNA = M-CSF mRNA qRT-PCR in hRPTECs; parameters: key to Upregulation of M-CSF hRPTECs R: +: statistically significant increase; −: no significant increase; conditions: for M-CSF mRNA levels in hRPTECs: 72 h (Fig.4C); for Upregulation of M-CSF hRPTECs R: mRNA levels, 72 h time point
Procedure: Hs00273334_m1), Lcn2 (NGAL; Hs01008571_m1), and Csf1 (M-CSF; Hs00174164_m1). All probes span an exon-exon junction. The real-time quantitative reverse transcription PCR (qRT-PCR) was performed in a 10 μl final reaction mixture using a ViiA 7TM system (Applied Biosystems®, Sydney, NSW, Australia) based on the following thermo cycling conditions: 10 min at 95°C for one cycle, 15 sec at 95°C, 60 sec at 60°C for 40 cycles. The ViiA 7TM software was used for data analysis with Hprt1 expression used for normalization. All assays were performed at least three times, with at least two technical replicates in each assay.

NGAL = NGAL protein ELISA in freshly isolated hPT cells; conditions: for NGAL protein upregulation in hPT cells: high doses, within 24 h; for Upregulation of NGAL hPT P(L): protein levels in cell lysates, table title says 72 h time point
Procedure: as §1

hRPTECs = assay: Resazurin cytotoxicity assay in hRPTECs
Procedure: For the MTT assay, the medium was then removed, the dried crystals were resuspended in 60 μL of Dimethyl sulfoxide (DMSO), and the absorbance was read at 570 nm. For the resazurin assay, the fluorescence intensity was read using a PolarStar Omega plate reader (BMG Labtech; Mornington VIC, Australia) at excitation/emission 560/590 nm. All assays were performed at least three times. […] La Jolla, CA). Both MTT and resazurin assays were performed three times, with two technical replicates in each assay.

Row | Molecule | KIM-1 protein increase in hPT cell lysate (KIM-1 [1]; 100 μmol/L) [fold] | KIM-1 protein upregulation in hPT cells (KIM-1 [1]) | Upregulation of KIM-1 hPT P(L) (KIM-1 [1]) | Upregulation of KIM-1 HK-2 P (KIM-1 [2]) | M-CSF mRNA levels in hRPTECs (M-CSF mRNA) | Upregulation of M-CSF hRPTECs R (M-CSF mRNA) | NGAL protein upregulation in hPT cells (NGAL) | Upregulation of NGAL hPT P(L) (NGAL) | KIM-1 protein increase in hPT cell lysate (KIM-1 [1]; 300 μmol/L) | toxicity in resazurin assay at highest concentration tested (hRPTECs; 72 h, highest concentrations gentamicin 1 mmol/L, CsA 50 μmol/L, cell type not given) | CC50 (hRPTECs; 72 h incubation, Mean ± Standard deviation, n = 3) [µM]
1 | N.N.[Cl][Pt][Cl] [Cisplatin, cisplatin] | 32 | significant upregulation | >32-fold | − | significant results | + | significant upregulation | >60-fold |  |  | 
2 | CNC(C)C1CCC(N)C(OC2C(N)CC(N)C(OC3OCC(C)(O)C(NC)C3O)C2O)O1 (stereo not drawn) [Gentamicin, gentamicin sulfate] |  | significant upregulation | Greater than fivefold | − |  |  | significant upregulation | >60-fold | fivefold | no toxicity | 
3 | Colistin sulfate |  | significant upregulation | >12-fold | − | significant results | + | significant upregulation | >60-fold | 12 fold |  | 177 ± 15
